Calls of active or inactive are those of the source.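 The calls were made as follows: active = compounds giving half or more protection of infected cells from virus-caused growth loss, again on retest; inactive = the rest.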
Tested on: CEM cells HIV-1 protection, formazan growth assay
Assay: NCI AIDS Antiviral Assay
Conditions: for IC50: measured here: growth of uninfected CEM cells
In short: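 Screen of anti-HIV-1 activity in human CEM cells using a formazan-based growth measurement at five drug concentrations. Hits with 50% or greater protection were repeated, and confirmation required reproducible complete protection.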

| SMILES | outcome | EC50 [µM] | IC50 [µM] |
| --- | --- | --- | --- |
| OCc1c(-c2cccc3ccccc23)sc(-c2cccc3ccccc23)c1CO | inactive | – | – |
| COc1ccc2c(c1)C(c1ccc3ccccc3c1)OC2=O (stereo not drawn) | – | > 46.8 | 7.41 |
| C=C1c2nc3ccccc3n2C=C(c2ccccc2)N1c1ccc([N+](=O)[O-])cc1 | – | > 200 | 42.7 |
| CSc1nc(=O)c2nc(-c3cccs3)c(-c3cccs3)nc2n1C | – | > 100 | > 100 |
| Cc1cn(C2CC(O)C(COC(=O)CCCCCCCCCCCN=[N+]=[N-])O2)c(=O)[nH]c1=O (stereo not drawn) | – | 10 | 21.4 |
| Cc1ccc([P+](Cc2ccccc2)(c2ccccc2)c2ccc(C)cc2)cc1 | – | > 200 | 0.741 |
| O=CC12C3CCC1C2C(=O)C3 (stereo not drawn) | inactive | – | > 200 |
| COc1nc2c(nc(N)n2C2OC(CO)C(O)C(O)C2O)c(=O)[nH]1 (stereo not drawn) | inactive | – | – |
| COc1ccc2c(c1)C(O)C(CO)C(C(=O)O)C2 (stereo not drawn) | – | > 200 | > 200 |
| O=C(OCC1OC(OC(=O)c2cc(O)c(O)c(OC(=O)c3cc(O)c(O)c(O)c3)c2)C(OC(=O)c2cc(O)c(O)c(OC(=O)c3cc(O)c(O)c(O)c3)c2)C(OC(=O)c2cc(O)c(O)c(OC(=O)c3cc(O)c(O)c(O)c3)c2)C1OC(=O)c1cc(O)c(O)c(OC(=O)c2cc(O)c(O)c(O)c2)c1)c1cc(O)c(O)c(OC(=O)c2cc(O)c(O)c(O)c2)c1 (stereo not drawn) | – | > 60.3 | 6.76 |
| O=C1NC(N2CCCCC2)=N/C1=C\c1ccc(Cl)cc1 | – | > 200 | 97.7 |
| COc1ccc2c3c(c(C(=O)c4ccccc4)oc13)CCC2 | inactive | – | – |
| Cc1cc2c(cc1C)C1=C(CCC2)C(=O)C(=O)O1 | – | > 200 | 110 |
| CO[C@@]12[C@H](COC(N)=O)C3=C(C(=O)C(C)=C(N)C3=O)N1C[C@@H]1N[C@@H]12 | – | > 17.4 | 0.794 |
| O=C(c1cc(Cl)ccc1Cl)N1CCN(C(=O)c2cc(Cl)ccc2Cl)CC1 | – | > 200 | > 200 |
| FC(F)(F)C12C34C=CC5(CCC6(C=CC1(CC3)O6)C52C(F)(F)F)O4 (stereo not drawn) | inactive | – | – |
| CCC/C(Cl)=N\OC(=O)Nc1ccc(F)cc1 | – | > 20 | 2.82 |
| COCn1c(C(=O)c2ccc(OC)cc2)cc2ccccc21 | – | > 33.9 | > 33.9 |
| COc1ccc(-n2sc3ncccc3c2=O)cc1 | – | > 18.2 | 6.03 |
| COc1ccc(/C=N/N2C(=O)c3c(N)c(C#N)c(-c4ccccc4)c(-c4ccccc4)c3C2=O)cc1 | – | > 100 | > 100 |
| Cc1nnc(N)s/c1=N/O | – | > 200 | > 200 |
| COc1ccc(/C(Cl)=C(\C=O)c2ccc(OC)c(OC)c2)cc1OC | – | > 251 | > 251 |

| SMILES | outcome | EC50 [µM] | IC50 [µM] |
| --- | --- | --- | --- |
| O/N=C1/CCCC/C1=C/C=C/c1ccccc1 | – | > 16.6 | > 16.6 |
| CCN(CC)C(=O)N1CN(c2ccccc2)C2(CCN(CCCC3(c4ccc(F)cc4)OCCO3)CC2)C1=O | – | > 200 | 27.5 |
| N/C(=N\N=C\c1cccc2ccccc12)N/N=C/c1cccc2ccccc12 | – | > 200 | 9.12 |
| CN(C)c1nc2nonc2nc1Nc1ccccc1 | – | > 200 | > 200 |
| CCOP(=Nc1ccc(N(C)C)cc1)(OCC)OCC | – | > 200 | > 200 |
| COC(=O)C1CCc2nnc(-c3ccccc3)n21 (stereo not drawn) | – | 955 | 1020 |
| O=C1C(c2ccccc2)=C(c2ccccc2)[C@H](c2ccccc2)[C@]1(Cc1nnn(-c2ccc([N+](=O)[O-])cc2)c1N1CCOCC1)c1ccccc1 | inactive | – | – |
| Nc1ncnc2c1ncn2C1OC2CSCCC2(O)C1O (stereo not drawn) | – | > 200 | > 200 |
| CCCCCCCCOCCS(=O)(=O)O | – | > 200 | > 200 |
| CN(C)c1ccc(C=Nc2ccc(Oc3ccc(Cl)cc3)c(Cl)c2)cc1 | – | > 200 | 28.2 |
| CCN(CC)C1CS(=O)(=O)OC(c2ccccc2)=C1C (stereo not drawn) | – | > 316 | 22.4 |
| COc1cc([C@H]2Oc3c(OC)cc(/C=C/C(N)=O)cc3[C@@H]2C(N)=O)ccc1O | – | > 200 | > 200 |
| O=CC1CCC=CC1NC(=O)OCc1ccccc1 (stereo not drawn) | inactive | – | – |
| Cc1ccc(S(=O)(=O)c2c(O)c3ccccc3n(C)c2=O)cc1 | – | > 200 | > 200 |
| COC(=O)/C(=C/c1c[nH]c2ccccc12)NC=O | – | > 200 | > 200 |
| CC(C)(C)OC(=O)NNCC(O)COc1ccccc1 (stereo not drawn) | – | > 200 | 91.2 |
| COc1ccc(C(=O)c2ccccc2O)c(O)c1 | – | > 200 | > 100 |
| COc1ccc2c(c1)OCCN(C)OC2c1ccccc1 (stereo not drawn) | – | > 200 | > 200 |
| CC[C@H]1CN2CCc3c([nH]c4ccccc34)C2C[C@@H]1CCO (stereo partly drawn) | – | > 120 | > 120 |
| [N-]=[N+]=Nc1c([N+](=O)[O-])c(=O)n2c3c(cccc13)CCC2 | inactive | – | – |
| CN(C)CCn1c(=O)c2ccc(NCCNCCO)c3c(=O)c4ccccc4n(c1=O)c23 | – | > 0.2 | 0.0112 |
| COc1ccc(C=C(Cl)Cl)cc1OC | – | > 200 | > 200 |

| SMILES | outcome | EC50 [µM] | IC50 [µM] |
| --- | --- | --- | --- |
| CCOC(=O)C1=C(O)C(=O)NC(C(=O)OCC)=C(c2ccccc2)C1 | – | > 50.1 | > 50.1 |
| Cc1[nH]c(=O)nc(NCCNCCO)c1C(=O)Nc1cccc2cc3ccccc3cc12 | – | > 200 | > 200 |
| O=C1CC2C=C(S(=O)(=O)c3ccccc3)C1N(Cc1ccccc1)C2=O (stereo not drawn) | inactive | – | – |
| COc1ccc2[nH]c(C(=O)N3CC(CCl)c4c3cc(N)c3ccccc43)cc2c1 (stereo not drawn) | – | > 0.2 | 0.00158 |
| O=C(NC(Cl)(C(F)(F)F)C(F)(F)F)c1ccc(F)cc1 | – | > 200 | > 200 |
| CC1=CC(=O)CC2(C)CC[C@@H]3C[C@]12OC3(C)C (stereo partly drawn) | inactive | – | – |
| N/N=C(\CCN1CCCC1)CC(c1ccccc1)c1c(O)c2ccccc2oc1=O (stereo not drawn) | – | > 58.9 | > 58.9 |
| CC1=CCC(Br)C(C)(C)C12CCC(C)(Cl)C(Br)C2 (stereo not drawn) | – | > 200 | 29.5 |
| O=C(NCP(=O)(Oc1ccccc1)Oc1ccccc1)OCc1ccccc1 | – | > 200 | 162 |
| O=C1C2C3CC(C4C5C=CC(C5)C34)C2C2C3CC(C12)C1C2C=CC(C2)C31 (stereo not drawn) | – | > 28.8 | > 28.8 |
| COc1ccc2c(c1)C(O)(C(F)(F)F)c1cc(C(=O)C(F)(F)F)c3ccccc3c1N2 (stereo not drawn) | – | > 6.17 | > 6.17 |
| Cc1nn(C(=O)c2ccncc2)c2c1C(c1ccc(Cl)cc1)SC(N)=N2 (stereo not drawn) | – | > 200 | 30.9 |
| CC(=O)O[C@]12CCCCC1C1(O)C(O)CCCCC12 (stereo partly drawn) | – | > 200 | > 200 |
| NCCCC[C@@H](NC(=O)[C@H](CS)NC(=O)[C@@H](N)Cc1cnc[nH]1)C(=O)N[C@H](Cc1ccccc1)C(=O)N[C@H](Cc1c[nH]c2ccccc12)C(=O)N[C@@H](Cc1c[nH]c2ccccc12)C(N)=O | – | > 200 | > 200 |
| CCCNC(=O)c1cc2ccccc2cc1C(=O)OC | – | > 5.37 | > 5.37 |
| Clc1ccc(CNCCCNCc2ccc(Cl)cc2Cl)c(Cl)c1 | – | > 200 | 22.4 |
| COC(=O)c1sc(C(=O)OC)c2c1CSC2 | inactive | – | – |
| CCOC(=O)C1=C(C#N)S(=O)(=O)c2c(oc(C)c2C)N1 | – | > 200 | > 200 |
| NNC(=O)CNC(=O)CSc1nnc(COc2ccc(Cl)cc2)n1-c1ccccc1 | – | > 200 | 56.2 |
| CC#CCCN(CC#N)Cc1ccccc1 | – | > 200 | > 200 |
| CC(C)[Si](OCC1CC(C[C@H]2CC(C[C@H]3C[C@@H](CO[Si](C(C)C)(C(C)C)C(C)C)OC(C)(C)O3)OC(C)(C)O2)OC(C)(C)O1)(C(C)C)C(C)C (stereo partly drawn) | – | > 200 | > 200 |
| O=C(O)c1oc2cccc3c2c1CCC3 | inactive | – | – |

| SMILES | outcome | EC50 [µM] | IC50 [µM] |
| --- | --- | --- | --- |
| CC(=O)OCCOCn1c2c(c(=O)[nH]c1=O)CCC2 | – | > 200 | > 200 |
| COc1nc(N)nc2c1CSc1ccccc1-2 | – | > 77.6 | > 77.6 |
| C=CCC(C)C(=O)CP1(=O)OC(C)CCN1C(C)(C)C (stereo not drawn) | inactive | – | – |
| CC(=O)NC(Cc1ccccc1)C(=S)N1CCCC1 (stereo not drawn) | – | > 912 | 776 |
| CCCCc1nc(C)oc1C(C)C | – | > 200 | > 200 |
| COc1ccccc1/C=C(/C(C)=O)C(=O)c1ccccc1 | – | > 25.7 | > 25.7 |
| CC1(c2ccccc2)CC(c2cccc([N+](=O)[O-])c2)=NO1 (stereo not drawn) | inactive | – | 43.7 |
| CCOC(=O)/C(=C\c1cccc(Cl)c1)[Se]c1ccccc1 | – | > 14.1 | > 14.1 |
| Cn1cc(NC(=O)Nc2cc(C(=O)Nc3cc(C(=O)Nc4cc(C(=O)Nc5ccc(S(=O)(=O)O)c6cc(S(=O)(=O)O)ccc56)n(C)c4)n(C)c3)n(C)c2)cc1C(=O)Nc1cc(C(=O)Nc2cc(C(=O)Nc3ccc(S(=O)(=O)O)c4cc(S(=O)(=O)O)ccc34)n(C)c2)n(C)c1 | – | 0.178 | 75.9 |
| O=C1c2ccccc2-c2c(Br)c3ccccc3c(=O)n21 | – | > 100 | 69.2 |
| Nc1ncnc2c1ncn2COC/C=C/I | – | > 204 | 155 |
| Cc1cc2c(cc1C)NC(=O)C(NC(=O)/C=C/c1ccccc1)C=N2 (stereo not drawn) | – | > 56.2 | 38.9 |
| O=C1NC(=O)C(Cc2cccc(Cl)c2)C(=O)N1 | – | > 200 | > 200 |
| Nc1ncnc2c1ncn2C1OC(CO)CC1O (stereo not drawn) | inactive | – | – |
| COC1/C=C/OC2(C)Oc3c(C)c(O)c4c(O)c(c(/C=N/Nc5nc6c(N)ncnc6n5C5OC(CO)C(O)C5O)c(O)c4c3C2=O)NC(=O)C(C)=C/C=C/C(C)C(O)C(C)C(O)C(C)C(OC(C)=O)C1C (stereo not drawn) | – | > 200 | 158 |
| O=C(CCCN1CC=C(n2c(=O)[nH]c3ccccc32)CC1)c1ccc(F)cc1 | – | > 200 | 89.1 |
| O=Nc1c(-c2ccccc2)nnc(-c2ccccc2)c1N=O | – | > 9.33 | > 9.33 |
| O=c1oc2ccccc2c(O)c1C(C/C(CCN1CCCC1)=N/O)c1ccccc1 (stereo not drawn) | – | > 42.7 | > 42.7 |
| COc1ccc2cc1Oc1ccc(cc1)C[C@@H]1c3cc(c(OC)cc3CCN1C)Oc1c(O)c(OC)cc3c1CCN(C)C3C2 (stereo partly drawn) | inactive | – | – |
| CCCCC1c2c([nH]c3ccccc23)C2C(=O)N(c3ccc(OC)cc3)C(=O)C2C1CCC (stereo not drawn) | – | > 200 | 3.55 |

From PubChem BioAssay AID179 (DTP/NCI, 2004)
